Measurements published in publication PMC10617776, “Bi-steric mTORC1 inhibitors induce apoptotic cell death in tumor models with hyperactivated mTORC1” (The Journal of Clinical Investigation, 2023).

Experiments:
KTP-269-3C4 Tsc1- = test system: T1, KTP-269-3C4 Tsc1-; assay: cells; set-up: cell proliferation by crystal violet staining, absorbance 540 nm; conditions: 72 h
T1 construct: Tsc1-null

705 TSC2+ = test system: T2, 705 TSC2+; assay: cells; set-up: cell proliferation by crystal violet staining, absorbance 540 nm; conditions: 72 h
T2 construct: TSC2 add-back

855T Tsc1- = test system: T3, 855T Tsc1-; assay: cells; set-up: cell proliferation by crystal violet staining, absorbance 540 nm; conditions: 72 h
T3 construct: Tsc1-null

KTP-267-2B8 Tsc1- = test system: T4, KTP-267-2B8 Tsc1-; assay: cells; set-up: cell proliferation by crystal violet staining, absorbance 540 nm; conditions: 72 h
T4 construct: Tsc1-null

TTJ Tsc2- = test system: T5, TTJ Tsc2-; assay: cells; set-up: cell proliferation by crystal violet staining, absorbance 540 nm; conditions: 72 h
T5 construct: Tsc2-null

705 Tsc2- = test system: T6, 705 Tsc2-; assay: cells; set-up: cell proliferation by crystal violet staining, absorbance 540 nm; conditions: 72 h
T6 construct: Tsc2-null

RT4 TSC1- = test system: T7, RT4 TSC1-; assay: cells; set-up: cell proliferation by crystal violet staining, absorbance 540 nm; conditions: 72 h
T7 construct: TSC1-null

mTOR (mTORC1 and mTORC2) = target: T8, mTOR (mTORC1 and mTORC2) (Homo sapiens, UniProt P42345); assay: immunoblot of mTORC1/mTORC2 substrate phosphorylation in cells ([…] h treatment); assay type: cell-based
T8 construct: endogenous mTOR in HCV29 TSC1-null cells

105K Tsc2- = test system: T9, 105K Tsc2-; assay: cells; set-up: cell proliferation by crystal violet staining, absorbance 540 nm; conditions: 72 h
T9 construct: Tsc2-null

KTP-267-1B1 Tsc1- = test system: T10, KTP-267-1B1 Tsc1-; assay: cells; set-up: cell proliferation by crystal violet staining, absorbance 540 nm; conditions: 72 h
T10 construct: Tsc1-null
Procedure: (§1) The effect of the compounds on cell proliferation was measured by crystal violet staining. Cells were plated in 96-well plates at a density of 500–2,000 cells (sextuples per condition). The next day, cells were treated with concentrations (0–100 nM) prepared by serial dilution. After 3 days of treatment, cells were fixed by 10% formalin for 10 minutes at room temperature. 0.05% crystal violet solution was added and incubated for 15 minutes at room temperature. Absorbance was read using Synergy HT (BioTek) at 540 nm. The inhibition curves and IC50 values were calculated by GraphPad Prism 9.0. TSC1-null HCV29 (BLCA cell line) and its TSC1–add-back derivative were treated with rapamycin, MLN0128, and bi-steric mTORC1 inhibitors.

SNU886 TSC2+ = test system: T11, SNU886 TSC2+; assay: cells; set-up: cell proliferation by crystal violet staining, absorbance 540 nm; conditions: SNU-886, 72 h
T11 construct: TSC2 add-back
Procedure: as §1

HCV29 TSC1+ = test system: T12, HCV29 TSC1+; assay: cells; set-up: cell proliferation by crystal violet staining, absorbance 540 nm; conditions: HCV-29, 72 h
T12 construct: TSC1 add-back
Procedure: as §1

HCV29 TSC1- = test system: T13, HCV29 TSC1-; assay: cells; set-up: cell proliferation by crystal violet staining, absorbance 540 nm; conditions: HCV-29, 72 h
T13 construct: TSC1-null
Procedure: as §1

TTJ Tsc2+ = test system: T14, TTJ Tsc2+; assay: cells; set-up: cell proliferation by crystal violet staining, absorbance 540 nm; conditions: 72 h
T14 construct: Tsc2 add-back

97-1 TSC1- = test system: T15, 97-1 TSC1-; assay: cells; set-up: cell proliferation by crystal violet staining, absorbance 540 nm; conditions: 72 h
T15 construct: TSC1-null

105K Tsc2+ = test system: T16, 105K Tsc2+; assay: cells; set-up: cell proliferation by crystal violet staining, absorbance 540 nm; conditions: 72 h
T16 construct: Tsc2 add-back

857T Tsc1+ = test system: T17, 857T Tsc1+; assay: cells; set-up: cell proliferation by crystal violet staining, absorbance 540 nm; conditions: 72 h
T17 construct: Tsc1 wild-type

97-1 TSC1+ = test system: T18, 97-1 TSC1+; assay: cells; set-up: cell proliferation by crystal violet staining, absorbance 540 nm; conditions: 72 h
T18 construct: TSC1 add-back

634T Tsc1- = test system: T19, 634T Tsc1-; assay: cells; set-up: cell proliferation by crystal violet staining, absorbance 540 nm; conditions: 72 h
T19 construct: Tsc1-null

immunoblot of mTORC1/mTORC2 substrate phosphorylation in cells (4 h treatment) (mTOR (mTORC1 and mTORC2)): 10 to 30 nM
IC50 (SNU886 TSC2+): 44.7 nM
SMILES: CC(C)n1nc(-c2ccc3oc(N)nc3c2)c2c(N)ncnc21 [MLN0128]
IC50 (KTP-269-3C4 Tsc1-): 26.9 nM
IC50 (705 TSC2+): 50.1 nM
IC50 (855T Tsc1-): 31.6 nM
IC50 (KTP-267-2B8 Tsc1-): 28.2 nM
IC50 (TTJ Tsc2-): 63.1 nM
IC50 (705 Tsc2-): 50.1 nM
IC50 (RT4 TSC1-): 63.1 nM
IC50 (105K Tsc2-): 41.7 nM
IC50 (KTP-267-1B1 Tsc1-): 44.7 nM
IC50 (HCV29 TSC1+): 35.5 nM
IC50 (HCV29 TSC1-): 31.6 nM
IC50 (TTJ Tsc2+): 50.1 nM
IC50 (97-1 TSC1-): 39.8 nM
IC50 (105K Tsc2+): 79.4 nM
IC50 (857T Tsc1+): 70.8 nM
IC50 (97-1 TSC1+): 46.8 nM
IC50 (634T Tsc1-): 60.3 nM
